Reference: patent US12054497B2, “Substituted heterocyclic fused cyclic compound, preparation method therefor and pharmaceutical use thereof” (GENFLEET THERAPEUTICS (SHANGHAI) INC., priority 2019, dated 2024)

Experiment: Pharmacokinetic evaluation on mice, intravenous administration (Test Example 6)
Type: in vivo
Settings: mouse, plasma, male CD-1 mice, IV 2 mg/kg; for clearance: read-out: Cl (clearance rate) (converted); for half-life: read-out: T1/2 (half-life) (converted); for Vd: read-out: Vd (volume of distribution)
Experimental: Experimental objective: male CD-1 mice were chosen as tested animals, and the LC-MS-MS method was employed to measure the concentrations of a tested compound in blood plasma of a mouse intravenously and intragastrically administrated with the tested compound at different times. The pharmacokinetic behaviors of tested compounds in mice were studied, and the pharmacokinetic characteristics thereof were evaluated.
Experimental scheme: experimental animals: 18 healthy adult male CD-1 mice (6 to 8 weeks old, and body weight about 30 g) were divided into 6 groups according to the principle of similar body weights: 3 mice in each of IV groups (3 groups), and 3 mice in each of PO groups (3 groups). The animals were purchased from Shanghai Jihui Laboratory Animal Care Co., Ltd.
Formulation: IV group: taking 10 mL of sample solution for example, 4 mg of sample was weighed, orderly added with 0.5 mL of DMSO and […], then added with […] of HP-p-CD, finally added with water to a constant volume of 10 mL, and stirred and subjected to ultrasonic irradiation, thereby obtaining a 0.4 mg/mL clear solution. PO group: an appropriate amount of sample was weighed, orderly added with appropriate amounts of Labrasol and water in a volume ratio of 10:40, and stirred and subjected to ultrasonic irradiation, thereby obtaining a 1.5 mg/mL uniform solution.
Administration: after being deprived of food for one night, the IV groups were intravenously administrated with the formulated solutions, respectively, with an injection volume of 5 mL/kg and a dosage of 2 mg/kg. The PO groups were intragastrically administrated with the formulated solutions, respectively, with an injection volume of […] and a dosage of 15 mg/kg.
Experimental operations: after the intravenous injection groups and the intragastric administration groups of the male CD-1 mice were administrated with the tested compounds, 110 ul of blood was sampled at the following time points: 0.0833, 0.25, 0.5, 1, 2, 4, 6, 8, and 24 hours. The sampled blood was placed into an anticoagulant tube which was added with K2EDTA in advance and preserved in dry ice. The tube was centrifuged for 15 minutes to separate blood plasma, and the separated blood plasma was preserved at −70° C. The animals were allowed to be fed after 4 hours of administration. The LC-MS-MS method was employed to measure the concentration of the tested compounds in the blood plasma after the intravenous and intragastric administration to the mice. The linear range of the method was 1-3000 ng/ml. The blood plasma samples were analyzed after protein precipitation with ACN.

Row | SMILES | clearance [mL/min/kg] | half-life [h] | Vd [L/kg]
1 | C=CC(=O)N1CCN2c3c(c(=O)n(-c4c(C)ccnc4C(C)C)c4nc(-c5c(O)cccc5F)c(F)cc34)N(C)C(=O)[C@H]2C1 (single isomer, unassigned) [Compound Z9-2] | 2.33 | 1.74 | 0.326
2 | C=CC(=O)N1C[C@@H]2C(=O)N(C)c3c(c4cc(F)c(-c5c(O)cccc5F)nc4n(-c4c(C)ccnc4C(C)C)c3=O)N2C[C@H]1C (single isomer, unassigned) [Compound Z10-2] | 13.5 | 0.941 | 1.06
3 | C=CC(=O)N1CCN2c3c(c(=O)n(-c4c(C)ccnc4C(C)C)c4nc(-c5c(O)cccc5F)c(Cl)cc34)N(C)C(=O)[C@H]2C1 (single isomer, unassigned) [Compound Z25-2] | 8.32 | 1 | 0.661
4 | C=CC(=O)N1C[C@@H]2C(=O)N(C)c3c(c4cc(Cl)c(-c5c(O)cccc5F)nc4n(-c4c(C)ccnc4C(C)C)c3=O)N2C[C@H]1C (single isomer, unassigned) [Compound Z27-2] | 9.83 | 1.08 | 0.777
5 | C=CC(=O)N1CCN2c3c(c(=O)n(-c4c(C(C)C)ncnc4C(C)C)c4nc(-c5c(O)cccc5F)c(Cl)cc34)N(C)C(=O)[C@H]2C1 [Compound Z48] | 25.5 | 1.02 | 1.66
